Results taken from PubChem BioAssay AID248 (DTP/NCI, 2004).
“And” between values parts separate entries of the source, which are not always exact repeats. Equal values may be shown once. Toxic doses and inconclusive results are not listed.

Tested on: L1210 leukemia ip in BDF1 mice, survival T/C
Assay: NCI In Vivo Anticancer Drug Screen. Data for tumor model L1210 Leukemia (intraperitoneal) in B6D2F1 (BDF1) mice
Details: endpoint: mean survival time, higher = longer survival
In short: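 Tumor was transplanted into mice, which were then dosed with test compound or vehicle alone. Survival was recorded for each group, and the treated figure was expressed relative to the control figure.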

[1] = dose: 100.0 mg/kg/injection, schedule: Q01DX001 (ip), vehicle: saline with Tween-80
[2] = dose: 100.0 mg/kg/injection, schedule: Q04DX003 (ip), vehicle: saline with Tween-80
[3] = dose: 200.0 mg/kg/injection, schedule: Q01DX001 (ip), vehicle: saline with Tween-80
[4] = dose: 200.0 mg/kg/injection, schedule: Q04DX003 (ip), vehicle: saline with Tween-80
[5] = dose: 400.0 mg/kg/injection, schedule: Q01DX001 (ip), vehicle: saline with Tween-80
[6] = dose: 400.0 mg/kg/injection, schedule: Q04DX003 (ip), vehicle: saline with Tween-80
[7] = dose: 50.0 mg/kg/injection, schedule: Q01DX009 (ip), vehicle: saline
[8] = dose: 100.0 mg/kg/injection, schedule: Q01DX009 (ip), vehicle: saline
[9] = dose: 100.0 mg/kg/injection, schedule: Q01DX001 (ip), vehicle: saline
[10] = dose: 200.0 mg/kg/injection, schedule: Q01DX001 (ip), vehicle: saline
[11] = dose: 400.0 mg/kg/injection, schedule: Q01DX001 (ip), vehicle: saline
[12] = dose: 100.0 mg/kg/injection, schedule: Q01DX001 (ip), vehicle: carboxymethylcellulose (CMC)
[13] = dose: 200.0 mg/kg/injection, schedule: Q01DX001 (ip), vehicle: carboxymethylcellulose (CMC)
[14] = dose: 100.0 mg/kg/injection, schedule: Q04DX002 (ip), vehicle: Klucel (hydroxypropylcellulose) (HPC)
[15] = dose: 200.0 mg/kg/injection, schedule: Q01DX009 (ip), vehicle: Klucel (hydroxypropylcellulose) (HPC)
[16] = dose: 200.0 mg/kg/injection, schedule: Q04DX002 (ip), vehicle: Klucel (hydroxypropylcellulose) (HPC)
[17] = dose: 400.0 mg/kg/injection, schedule: Q04DX002 (ip), vehicle: Klucel (hydroxypropylcellulose) (HPC)
[18] = dose: 100.0 mg/kg/injection, schedule: Q04DX003 (ip), vehicle: saline

O=C(Nc1ccc(Cl)cc1[N+](=O)[O-])Nc1ccccc1C(F)(F)F
T/C [1]: 93 % of control | T/C (dose: 100.0 mg/kg/injection, schedule: Q01DX009 (ip), vehicle: saline with Tween-80): 94 % of control and 90 % of control | T/C (dose: 100.0 mg/kg/injection, schedule: Q04DX002 (ip), vehicle: saline with Tween-80): 95 % of control and 96 % of control | T/C [2]: 97 % of control | T/C [3]: 90 % of control | T/C (dose: 200.0 mg/kg/injection, schedule: Q01DX009 (ip), vehicle: saline with Tween-80): 100 % of control and 92 % of control | T/C (dose: 200.0 mg/kg/injection, schedule: Q04DX002 (ip), vehicle: saline with Tween-80): 93 % of control and 98 % of control | T/C [4]: 88 % of control | T/C [5]: 101 % of control | T/C (dose: 400.0 mg/kg/injection, schedule: Q01DX009 (ip), vehicle: saline with Tween-80): 94 % of control and 87 % of control | T/C (dose: 400.0 mg/kg/injection, schedule: Q04DX002 (ip), vehicle: saline with Tween-80): 91 % of control | T/C [6]: 88 % of control

NC(=S)N/N=C1\c2ccccc2-c2c(F)c(F)c(F)c(F)c21
T/C (dose: 5.0 mg/kg/injection, schedule: Q01DX001 (ip), vehicle: carboxymethylcellulose (CMC)): 96 % of control | T/C (dose: 10.0 mg/kg/injection, schedule: Q01DX001 (ip), vehicle: carboxymethylcellulose (CMC)): 107 % of control | T/C (dose: 20.0 mg/kg/injection, schedule: Q01DX001 (ip), vehicle: carboxymethylcellulose (CMC)): 96 % of control

CCCCC(CC)COP(=O)(CC(CC)CCCC)OCC(CC)CCCC (stereo not drawn)
T/C [7]: 111 % of control | T/C [8]: 107 % of control

Brc1ccc(-c2nc3ccccc3c(Br)c2Br)cc1
T/C [9]: 90 % of control | T/C [10]: 94 % of control | T/C [11]: 90 % of control

CCn1c(=S)[nH]c(/C=N/N(CCO)CCO)c(C)c1=O
T/C [1]: 103 % of control | T/C [3]: 103 % of control | T/C [5]: 95 % of control

O=C1c2ccccc2C(O)(O)C1(O)C1(O)C(=O)c2ccccc2C1(O)O (stereo not drawn)
T/C [12]: 109 % of control | T/C [13]: 103 % of control

CCOC(=O)/C(C#N)=C\c1cccc2ccccc12
T/C [9]: 98 % of control | T/C (dose: 100.0 mg/kg/injection, schedule: Q04DX003 (ip), vehicle: other): 92 % of control | T/C [10]: 103 % of control | T/C (dose: 200.0 mg/kg/injection, schedule: Q04DX003 (ip), vehicle: other): 92 % of control | T/C [11]: 100 % of control | T/C (dose: 400.0 mg/kg/injection, schedule: Q04DX003 (ip), vehicle: other): 93 % of control

CN=C(NC)c1ccc(NC(=O)c2cc(Cl)cc(C(=O)Nc3ccc(C(=NC)NC)cc3)c2)cc1
T/C (dose: 1.88 mg/kg/injection, schedule: Q01DX Z (ip), vehicle: saline): 88 % of control | T/C (dose: 3.75 mg/kg/injection, schedule: Q01DX Z (ip), vehicle: saline): 94 % of control | T/C (dose: 7.5 mg/kg/injection, schedule: Q01DX Z (ip), vehicle: saline): 93 % of control | T/C (dose: 15.0 mg/kg/injection, schedule: Q01DX Z (ip), vehicle: saline): 104 % of control and 115 % of control

CCC(C)C(N)C(=O)OCc1ccccc1 (stereo not drawn)
T/C (dose: 50.0 mg/kg/injection, schedule: Q01DX009 (ip), vehicle: Klucel (hydroxypropylcellulose) (HPC)): 88 % of control | T/C (dose: 100.0 mg/kg/injection, schedule: Q01DX009 (ip), vehicle: Klucel (hydroxypropylcellulose) (HPC)): 90 % of control | T/C [14]: 95 % of control | T/C [15]: 92 % of control | T/C [16]: 92 % of control | T/C [17]: 89 % of control

CS(=O)(=O)OCCC(=O)N1CCN(C(=O)CCOS(C)(=O)=O)CC1
T/C (dose: 6.3 mg/kg/injection, schedule: Q01DX001 (ip), vehicle: carboxymethylcellulose (CMC)): 100 % of control and 105 % of control | T/C (dose: 9.7 mg/kg/injection, schedule: Q01DX Z (ip), vehicle: methylcellulose (MC)): 106 % of control | T/C (dose: 12.5 mg/kg/injection, schedule: Q01DX001 (ip), vehicle: carboxymethylcellulose (CMC)): 103 % of control and 122 % of control | T/C (dose: 14.7 mg/kg/injection, schedule: Q01DX Z (ip), vehicle: methylcellulose (MC)): 104 % of control | T/C (dose: 16.0 mg/kg/injection, schedule: Q01DX002 (ip), vehicle: saline): 115 % of control | T/C (dose: 22.0 mg/kg/injection, schedule: Q01DX Z (ip), vehicle: methylcellulose (MC)): 110 % of control and 112 % of control | T/C (dose: 25.0 mg/kg/injection, schedule: Q01DX001 (ip), vehicle: carboxymethylcellulose (CMC)): 112 % of control and 115 % of control | T/C (dose: 25.0 mg/kg/injection, schedule: Q04DX003 (ip), vehicle: saline): 108 % of control | T/C (dose: 31.0 mg/kg/injection, schedule: Q01DX002 (ip), vehicle: saline): 105 % of control and 115 % of control | T/C (dose: 31.25 mg/kg/injection, schedule: Q01DX Z (ip), vehicle: methylcellulose (MC)): 156 % of control | T/C (dose: 33.5 mg/kg/injection, schedule: Q01DX Z (ip), vehicle: methylcellulose (MC)): 150 % of control | T/C (dose: 50.0 mg/kg/injection, schedule: Q01DX001 (ip), vehicle: saline): 121 % of control | T/C (dose: 50.0 mg/kg/injection, schedule: Q04DX003 (ip), vehicle: saline): 123 % of control | T/C (dose: 62.5 mg/kg/injection, schedule: Q01DX Z (ip), vehicle: methylcellulose (MC)): 176 % of control | T/C (dose: 75.0 mg/kg/injection, schedule: Q01DX Z (ip), vehicle: methylcellulose (MC)): 162 % of control | T/C (dose: 76.0 mg/kg/injection, schedule: Q01DX Z (ip), vehicle: methylcellulose (MC)): 218 % of control | T/C [18]: 153 % of control and 195 % of control | T/C (dose: 170.0 mg/kg/injection, schedule: Q01DX Z (ip), vehicle: methylcellulose (MC)): 103 % of control and 115 % of control | T/C [10]: 167 % of control | T/C (dose: 225.0 mg/kg/injection, schedule: Q01DX Z (ip), vehicle: methylcellulose (MC)): 93 % of control | T/C (dose: 250.0 mg/kg/injection, schedule: Q01DX002 (ip), vehicle: saline): 205 % of control and 240 % of control | T/C [11]: 213 % of control

CC12OC1(C)C1(CO1)C1(C)OC1(C)C2=O (stereo not drawn)
T/C (dose: 100.0 mg/kg/injection, schedule: Q01DX001 (ip), vehicle: Klucel (hydroxypropylcellulose) (HPC)): 94 % of control | T/C (dose: 200.0 mg/kg/injection, schedule: Q01DX001 (ip), vehicle: Klucel (hydroxypropylcellulose) (HPC)): 97 % of control | T/C (dose: 400.0 mg/kg/injection, schedule: Q01DX001 (ip), vehicle: Klucel (hydroxypropylcellulose) (HPC)): 87 % of control

Cc1cccc(Cl)c1NC(=O)c1c(Cl)c(Cl)c(Cl)c(Cl)c1C(=O)O
T/C [14]: 110 % of control | T/C [16]: 104 % of control

CCS(=O)(=O)N1CC(C)OC(C)C1 (stereo not drawn)
T/C [14]: 96 % of control | T/C [16]: 103 % of control | T/C [17]: 107 % of control

Cc1ccc(NC(=O)/C=N/O)cc1C
T/C [9]: 104 % of control | T/C [10]: 102 % of control | T/C [11]: 90 % of control

O=C(O)/C(=C\c1ccncc1)c1cccc2ccccc12
T/C [2]: 100 % of control | T/C [15]: 105 % of control | T/C [4]: 98 % of control | T/C (dose: 400.0 mg/kg/injection, schedule: Q01DX009 (ip), vehicle: Klucel (hydroxypropylcellulose) (HPC)): 102 % of control | T/C [6]: 91 % of control

CC1(C)Oc2c(ccc(O)c2CN2CCCC2)C2=C1CCCC2
T/C [9]: 95 % of control | T/C [10]: 95 % of control | T/C [11]: 95 % of control

CCOCC1c2ccccc2CCN1Cc1c[nH]c2ccccc12 (stereo not drawn)
T/C (dose: 50.0 mg/kg/injection, schedule: Q01DX001 (ip), vehicle: carboxymethylcellulose (CMC)): 97 % of control | T/C [12]: 89 % of control | T/C [13]: 90 % of control

CC1(C)COCOC1
T/C (dose: 50.0 mg/kg/injection, schedule: Q01DX009 (ip), vehicle: acetone): 95 % of control | T/C (dose: 100.0 mg/kg/injection, schedule: Q01DX009 (ip), vehicle: acetone): 98 % of control | T/C (dose: 200.0 mg/kg/injection, schedule: Q01DX009 (ip), vehicle: acetone): 88 % of control

CCOC(=O)NCCN(C)C
T/C [7]: 105 % of control | T/C [8]: 102 % of control | T/C [18]: 99 % of control | T/C (dose: 200.0 mg/kg/injection, schedule: Q01DX009 (ip), vehicle: saline): 108 % of control | T/C (dose: 200.0 mg/kg/injection, schedule: Q04DX003 (ip), vehicle: saline): 102 % of control
